Measured values taken from ChEMBL document CHEMBL1201862, “PubChem BioAssay data set” (2004).
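Results reflect a 48-hour exposure of cells in 96-well plates to compound at five concentrations. The concentration for 50% growth inhibition is given as GI50.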 The source made the active and inactive calls. No stated cut-off is given here; in the data, active = GI50 up to about 1.1 µM and inactive = higher. Square brackets hold non-standard residues; d marks the D form. Peptide text beside a SMILES is read from it.

Key:
Assay in all cases: growth of human tumour cells (NCI), 48 h
786-0 = system: 786-0
A549 = system: A549
EKVX = system: EKVX
KM12 = system: KM12
M14 = system: M14
MOLT-4 = system: MOLT-4
NCI-H226 = system: NCI-H226
NCI-H460 = system: NCI-H460
OVCAR-3 = system: OVCAR-3
OVCAR-8 = system: OVCAR-8
PC-3 = system: PC-3
SF-539 = system: SF-539
SN12C = system: SN12C
SNB-19 = system: SNB-19
SNB-75 = system: SNB-75
T47D = system: T47D
UACC-257 = system: UACC-257
UACC-62 = system: UACC-62
NCI-H23 = system: NCI-H23
SK-OV-3 = system: SK-OV-3

| Compound | GI50 (786-0) | GI50 (A549) | GI50 (EKVX) | GI50 (KM12) | GI50 (M14) | GI50 (MOLT-4) | GI50 (NCI-H226) | GI50 (NCI-H460) | GI50 (OVCAR-3) | GI50 (OVCAR-8) | GI50 (PC-3) | GI50 (SF-539) | GI50 (SN12C) | GI50 (SNB-19) | GI50 (SNB-75) | GI50 (T47D) | GI50 (UACC-257) | GI50 (UACC-62) | GI50 (NCI-H23) | GI50 (SK-OV-3) |
| --- | --- | --- | --- | --- | --- | --- | --- | --- | --- | --- | --- | --- | --- | --- | --- | --- | --- | --- | --- | --- |
| CNN1C(=O)c2c(N)c(C#N)c(-c3ccccc3)c(-c3ccccc3)c2C1=O | 91.6 µM (inactive) | > 100 µM (inactive) | > 100 µM (inactive) | 86.9 µM (inactive) | > 100 µM (inactive) | 39.5 µM (inactive) | > 100 µM (inactive) | 71.6 µM (inactive) | 34.6 µM (inactive) | 90.6 µM (inactive) | 55.6 µM (inactive) | 57.7 µM (inactive) | > 100 µM (inactive) | > 100 µM (inactive) | 83.4 µM (inactive) | 17.9 µM (inactive) | > 100 µM (inactive) | > 100 µM (inactive) | – | – |
| COC(=O)CN(CC(=O)NCCNC(=O)OC(C)(C)C)C1CCCCC1N(CC(=O)OC)CC(=O)OC (stereo unspecified) | > 100 µM (inactive) | > 100 µM (inactive) | > 100 µM (inactive) | > 100 µM (inactive) | – | > 100 µM (inactive) | 48 µM (inactive) | > 100 µM (inactive) | > 100 µM (inactive) | > 100 µM (inactive) | > 100 µM (inactive) | > 100 µM (inactive) | > 100 µM (inactive) | > 100 µM (inactive) | – | > 100 µM (inactive) | > 100 µM (inactive) | > 100 µM (inactive) | > 100 µM (inactive) | > 100 µM (inactive) |
| O=C1Nc2cc(Cl)ccc2C(=O)N2CCC[C@@H]12 | > 100 µM (inactive) | > 100 µM (inactive) | > 100 µM (inactive) | > 100 µM (inactive) | > 100 µM (inactive) | – | 0.929 µM (active) | > 100 µM (inactive) | – | > 100 µM (inactive) | > 100 µM (inactive) | – | > 100 µM (inactive) | > 100 µM (inactive) | > 100 µM (inactive) | > 100 µM (inactive) | > 100 µM (inactive) | > 100 µM (inactive) | > 100 µM (inactive) | > 100 µM (inactive) |
| N=C(N)NCCC[C@H]1NC(=O)[C@@H](CCC(=O)O)NC(=O)[C@@H](CC(=O)O)NC(=O)[C@@H](CCC(=O)O)NC(=O)[C@H](Cc2c[nH]c3ccccc23)NC1=O (cyclo(W[dE][dD][dE][dR])) | > 7.5 µM (inactive) | > 7.5 µM (inactive) | > 7.5 µM (inactive) | > 7.5 µM (inactive) | > 7.5 µM (inactive) | > 7.5 µM (inactive) | > 7.5 µM (inactive) | > 7.5 µM (inactive) | > 7.5 µM (inactive) | > 7.5 µM (inactive) | 0.351 µM (active) | > 7.5 µM (inactive) | > 7.5 µM (inactive) | > 7.5 µM (inactive) | – | > 7.5 µM (inactive) | > 7.5 µM (inactive) | > 7.5 µM (inactive) | > 7.5 µM (inactive) | > 7.5 µM (inactive) |
| COc1cc(OC)nc(-n2c(N)c(C#N)c3ccc([N+](=O)[O-])cc3c2=O)n1 | > 100 µM (inactive) | > 100 µM (inactive) | > 100 µM (inactive) | > 100 µM (inactive) | > 100 µM (inactive) | > 100 µM (inactive) | – | > 100 µM (inactive) | > 100 µM (inactive) | > 100 µM (inactive) | > 100 µM (inactive) | > 100 µM (inactive) | > 100 µM (inactive) | > 100 µM (inactive) | > 100 µM (inactive) | > 100 µM (inactive) | > 100 µM (inactive) | > 100 µM (inactive) | > 100 µM (inactive) | – |
| CC1(C)C2CCC(N)(C2)C1N (stereo unspecified) | > 100 µM (inactive) | > 100 µM (inactive) | > 100 µM (inactive) | > 100 µM (inactive) | > 100 µM (inactive) | > 100 µM (inactive) | > 100 µM (inactive) | > 100 µM (inactive) | > 100 µM (inactive) | > 100 µM (inactive) | > 100 µM (inactive) | – | > 100 µM (inactive) | > 100 µM (inactive) | > 100 µM (inactive) | > 100 µM (inactive) | > 100 µM (inactive) | > 100 µM (inactive) | > 100 µM (inactive) | > 100 µM (inactive) |
| COc1cc2c(cc1NC(=O)c1ccccc1)c1c(n2S(=O)(=O)c2ccccc2)CCN(S(=O)(=O)c2ccccc2)C1 | > 100 µM (inactive) | > 100 µM (inactive) | – | > 100 µM (inactive) | > 100 µM (inactive) | > 100 µM (inactive) | > 100 µM (inactive) | > 100 µM (inactive) | > 100 µM (inactive) | > 100 µM (inactive) | > 100 µM (inactive) | – | – | > 100 µM (inactive) | > 100 µM (inactive) | 22.1 µM (inactive) | > 100 µM (inactive) | > 100 µM (inactive) | > 100 µM (inactive) | > 100 µM (inactive) |
